Measured values: ChEMBL document CHEMBL3885881, “DrugMatrix”

Species: Rattus norvegicus
Assay: DrugMatrix - Regimen: Daily Repeat
Assay type: toxicity, organism-based, Sprague-Dawley
Parameters: regimen Daily Repeat, gender Male, age 6-8 weeks
Conditions: in vivo, po, 750 mg/kg, route oral GAVAGE, dose level High, vehicle .5 % CMC; for BASOPHIL / EOSINOPHIL / ERYTHROCYTE COUNT / HEMATOCRIT / HEMOGLOBIN / LEUKOCYTE COUNT / LYMPHOCYTE / MEAN CORPUSCULAR HEMOGLOBIN / MEAN CORPUSCULAR HEMOGLOBIN CONCENTRATION / MEAN CORPUSCULAR VOLUME / MONOCYTE / NEUTROPHIL / PLATELET COUNT: tissue Blood; for ALANINE AMINOTRANSFERASE / ALBUMIN / ALKALINE PHOSPHATASE / ASPARTATE AMINOTRANSFERASE / BLOOD UREA NITROGEN / CARBON DIOXIDE / CHLORIDE / CHOLESTEROL / CREATINE PHOSPHOKINASE / CREATININE / GLUCOSE / LACTATE DEHYDROGENASE / LIPASE / PHOSPHORUS / POTASSIUM / SODIUM / TOTAL BILIRUBIN / TOTAL PROTEIN / URIC ACID: tissue Plasma

In the case of `ClC(Cl)(Cl)C(Cl)(Cl)Cl` [HEXACHLOROETHANE], the BASOPHIL (96 h, time 4 day) was 0.3%, the EOSINOPHIL (96 h, time 4 day) was 0.6% and the “ERYTHROCYTE COUNT” value (96 h, time 4 day) was 7.16 x10E6/uL. The HEMATOCRIT (96 h, time 4 day) was 45.77%, the HEMOGLOBIN (96 h, time 4 day) was 14.9 G/DL and the “LEUKOCYTE COUNT” value (96 h, time 4 day) was 12.35 x10E3/uL. The LYMPHOCYTE (96 h, time 4 day) was 79.87%, the “MEAN CORPUSCULAR HEMOGLOBIN” value (96 h, time 4 day) was 20.77 pg and the “MEAN CORPUSCULAR HEMOGLOBIN CONCENTRATION” value (96 h, time 4 day) was 32.5 G/DL. For the same compound, the “MEAN CORPUSCULAR VOLUME” value (96 h, time 4 day) was 63.9 fL, the MONOCYTE (96 h, time 4 day) was 2.47% and the NEUTROPHIL (96 h, time 4 day) was 16.1%. The “PLATELET COUNT” value (96 h, time 4 day) was 1434.33 x10E3/uL, the “ALANINE AMINOTRANSFERASE” value (96 h, time 4 day) was 28 u/L and the ALBUMIN (96 h, time 4 day) was 3.87 G/DL. For the same compound, the “ALKALINE PHOSPHATASE” value (96 h, time 4 day) was 292 u/L, the “ASPARTATE AMINOTRANSFERASE” value (96 h, time 4 day) was 63.67 u/L and the “BLOOD UREA NITROGEN” value (96 h, time 4 day) was 17.67 mg/dL. For the same compound, the “CARBON DIOXIDE” value (96 h, time 4 day) was 21.67 mmol/L, the CHLORIDE (96 h, time 4 day) was 108.33 MEQ/L and the CHOLESTEROL (96 h, time 4 day) was 74.67 mg/dL. The “CREATINE PHOSPHOKINASE” value (96 h, time 4 day) was 242 u/L, the CREATININE (96 h, time 4 day) was 0.43 mg/dL and the GLUCOSE (96 h, time 4 day) was 177 mg/dL. The “LACTATE DEHYDROGENASE” value (96 h, time 4 day) was 82 u/L, the LIPASE (96 h, time 4 day) was 19 u/L and the PHOSPHORUS (96 h, time 4 day) was 11.57 mg/dL. For the same compound, the POTASSIUM (96 h, time 4 day) was 5.67 MEQ/L, the SODIUM (96 h, time 4 day) was 150 MEQ/L and the “TOTAL BILIRUBIN” value (96 h, time 4 day) was 0.23 mg/dL. The “TOTAL PROTEIN” value (96 h, time 4 day) was 6.5 G/DL, the “URIC ACID” value (96 h, time 4 day) was 1.17 mg/dL and the BASOPHIL ([…], time 6 day) was 0.4%. The EOSINOPHIL ([…], time 6 day) was 0.57%, the “ERYTHROCYTE COUNT” value ([…], time 6 day) was 7.65 x10E6/uL and the HEMATOCRIT ([…], time 6 day) was 47.3%. For the same compound, the HEMOGLOBIN ([…], time 6 day) was 15.03 G/DL, the “LEUKOCYTE COUNT” value ([…], time 6 day) was 11.09 x10E3/uL and the LYMPHOCYTE ([…], time 6 day) was 86.53%. For the same compound, the “MEAN CORPUSCULAR HEMOGLOBIN” value ([…], time 6 day) was 19.67 pg, the “MEAN CORPUSCULAR HEMOGLOBIN CONCENTRATION” value ([…], time 6 day) was 31.77 G/DL and the “MEAN CORPUSCULAR VOLUME” value ([…], time 6 day) was 61.9 fL. For the same compound, the MONOCYTE ([…], time 6 day) was 1.6%, the NEUTROPHIL ([…], time 6 day) was 10.43% and the “PLATELET COUNT” value ([…], time 6 day) was 1317.33 x10E3/uL. The BASOPHIL ([…], time 14 day) was 0.38%, the EOSINOPHIL ([…], time 14 day) was 1.98% and the “ERYTHROCYTE COUNT” value ([…], time 14 day) was 8.11 x10E6/uL. The HEMATOCRIT ([…], time 14 day) was 53.9%, the HEMOGLOBIN ([…], time 14 day) was 15.78 G/DL and the “LEUKOCYTE COUNT” value ([…], time 14 day) was 13.93 x10E3/uL. The LYMPHOCYTE ([…], time 14 day) was 77.98%, the “MEAN CORPUSCULAR HEMOGLOBIN” value ([…], time 14 day) was 19.5 pg and the “MEAN CORPUSCULAR HEMOGLOBIN CONCENTRATION” value ([…], time 14 day) was 29.3 G/DL. For the same compound, the “MEAN CORPUSCULAR VOLUME” value ([…], time 14 day) was 66.52 fL, the MONOCYTE ([…], time 14 day) was 1.82% and the NEUTROPHIL ([…], time 14 day) was 17.32%. For the same compound, the “PLATELET COUNT” value ([…], time 14 day) was 1210 x10E3/uL, the “ALANINE AMINOTRANSFERASE” value ([…], time 6 day) was 38.33 u/L and the ALBUMIN ([…], time 6 day) was 3.9 G/DL. The “ALKALINE PHOSPHATASE” value ([…], time 6 day) was 248.33 u/L, the “ASPARTATE AMINOTRANSFERASE” value ([…], time 6 day) was 85.33 u/L and the “BLOOD UREA NITROGEN” value ([…], time 6 day) was 17 mg/dL. For the same compound, the “CARBON DIOXIDE” value ([…], time 6 day) was 24 mmol/L, the CHLORIDE ([…], time 6 day) was 109.67 MEQ/L and the CHOLESTEROL ([…], time 6 day) was 81 mg/dL. The “CREATINE PHOSPHOKINASE” value ([…], time 6 day) was 545 u/L, the CREATININE ([…], time 6 day) was 0.33 mg/dL and the GLUCOSE ([…], time 6 day) was 171.67 mg/dL. The “LACTATE DEHYDROGENASE” value ([…], time 6 day) was 134.33 u/L, the LIPASE ([…], time 6 day) was 4.67 u/L and the PHOSPHORUS ([…], time 6 day) was 12.5 mg/dL. The POTASSIUM ([…], time 6 day) was 7.1 MEQ/L, the SODIUM ([…], time 6 day) was 619.67 MEQ/L and the “TOTAL BILIRUBIN” value ([…], time 6 day) was 0.23 mg/dL. The “TOTAL PROTEIN” value ([…], time 6 day) was 6.6 G/DL, the “URIC ACID” value ([…], time 6 day) was 1.57 mg/dL and the “ALANINE AMINOTRANSFERASE” value ([…], time 14 day) was 49.8 u/L. For the same compound, the ALBUMIN ([…], time 14 day) was 4.38 G/DL, the “ALKALINE PHOSPHATASE” value ([…], time 14 day) was 322.6 u/L and the “ASPARTATE AMINOTRANSFERASE” value ([…], time 14 day) was 75 u/L. The “BLOOD UREA NITROGEN” value ([…], time 14 day) was 15.6 mg/dL, the “CARBON DIOXIDE” value ([…], time 14 day) was 27.6 mmol/L and the CHLORIDE ([…], time 14 day) was 104.8 MEQ/L. The CHOLESTEROL ([…], time 14 day) was 84.4 mg/dL, the “CREATINE PHOSPHOKINASE” value ([…], time 14 day) was 289.2 u/L and the CREATININE ([…], time 14 day) was 0.42 mg/dL. The GLUCOSE ([…], time 14 day) was 153.6 mg/dL, the “LACTATE DEHYDROGENASE” value ([…], time 14 day) was 57.2 u/L and the LIPASE ([…], time 14 day) was 7.2 u/L. For the same compound, the PHOSPHORUS ([…], time 14 day) was 13.42 mg/dL, the POTASSIUM ([…], time 14 day) was 6.7 MEQ/L and the SODIUM ([…], time 14 day) was 151.4 MEQ/L. For the same compound, the “TOTAL BILIRUBIN” value ([…], time 14 day) was 0.34 mg/dL, the “TOTAL PROTEIN” value ([…], time 14 day) was 7.08 G/DL and the “URIC ACID” value ([…], time 14 day) was 1.5 mg/dL.
